Results: article PMC4467816 (EJNMMI Research, 2015)

Experiments:
NET [1] = biological target: T1, NET (Homo sapiens, UniProt P23975); assay: In vitro autoradiography with [11C]Me@HAPTHI, human brain slices, competition; format: binding; settings: human nucleus caudatus
T1 construct: The human postmortem tissue (7–9 h postmortem time, no history of neurological diseases) was obtained from the Neurobiobank; from tissue; host or cells: post-mortem human brain (cortex, thalamus, hippocampus, cerebellum, hypothalamus, nucleus caudatus), 10 µm cryo-slices
T1 sequence (P23975 whole entry): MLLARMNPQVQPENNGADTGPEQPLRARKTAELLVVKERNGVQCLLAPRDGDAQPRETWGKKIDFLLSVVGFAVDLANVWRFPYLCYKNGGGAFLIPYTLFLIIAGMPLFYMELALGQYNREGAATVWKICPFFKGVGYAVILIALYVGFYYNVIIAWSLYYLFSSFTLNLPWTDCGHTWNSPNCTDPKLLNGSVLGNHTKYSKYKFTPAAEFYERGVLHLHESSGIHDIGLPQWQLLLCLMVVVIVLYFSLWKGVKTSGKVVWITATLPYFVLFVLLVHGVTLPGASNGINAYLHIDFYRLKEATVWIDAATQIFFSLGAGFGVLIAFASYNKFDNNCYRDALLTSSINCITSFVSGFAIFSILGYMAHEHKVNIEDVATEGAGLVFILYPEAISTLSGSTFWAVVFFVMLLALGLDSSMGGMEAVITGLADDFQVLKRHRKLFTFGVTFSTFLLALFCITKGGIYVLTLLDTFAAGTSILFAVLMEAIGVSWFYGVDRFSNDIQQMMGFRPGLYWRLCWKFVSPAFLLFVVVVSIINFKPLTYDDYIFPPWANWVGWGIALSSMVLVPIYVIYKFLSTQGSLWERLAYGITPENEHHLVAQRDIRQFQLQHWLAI

[2] = HPLC-based logD analysis (ODP-50 column); format: physicochemical; settings: for chromatographic logD: HPLC on polymeric ODP-50 column, methanol/phosphate buffer, pH 7.4, HPLC method
Procedure: LogD values were assessed using a HPLC-based protocol according to Donovan and Pescatore. All compounds (as cold reference standards) were injected together with two known compounds—with known logD and k′ values—according to a standard protocol. A polymeric ODP-50 column was used; a linear gradient from 10 % MeOH 90 % 25 mM phosphate buffer (pH 7.4) to 100 % methanol within 9.4 min at a flow-rate of 1.5 mL/min was applied. Internal standards were triphenylene and toluene; detection was performed at 260 and 285 nm.

NET [3] = biological target: T1, NET; assay: In vitro autoradiography with [11C]Me@HAPTHI, human brain slices, competition; format: binding
Procedure: Human brain tissue (cortex, thalamus, hippocampus, cerebellum and hypothalamus) was obtained deeply frozen from the Neurobiobank of the Medical University Vienna and was stored at −80 °C. Before cutting, tissue blocks were thawed slowly within 12 h to −20 °C. The organs were cut at −20 °C in a micro-cryotome into 10-μm-thick slices and thaw mounted onto object slides. Slices were again stored at −80 °C until the beginning of the experiment.
(§1) In vitro autoradiography was performed with slight modifications according to previously published protocols. Non-specific binding was determined by co-incubation with excess Nisoxetine (10 μM). […] After 1 h at room temperature, incubation was stopped and slices were processed on phosphor imaging films.
(§2) All data was exported to Microsoft Excel for statistical analysis, and the percentage of total specific binding was calculated.
Human brain tissue (cortex, thalamus, hippocampus, cerebellum, and hypothalamus) was obtained deeply frozen from the Neuro-Biobank of the Medical University Vienna. Upon cutting, all tissue was stored at -80 °C. Before cutting, tissue blocks were thawed slowly within 12 h to -20 °C. The organs were cut at -20°C in a micro-cryotome into 10 µm thick slices and thaw mounted onto object slides. Until the beginning of the experiment, slices were stored at -80°C.
(§3) A buffer for pre-incubation (50 mM TRIS HCl in aqua dest., pH 7.4) and a buffer for the experiment (50 mM TRIS HCl, pH 7.4, 300 mM NaCl, 5 mM KCl, 0.1%w/v ascorbic acid in aqua dest.) were prepared the day before the experiment and stored at 4 °C.
(§4) Tissue sections were allowed to thaw to RT upon thorough vanishing of condense water residues (5-10min). Subsequently, the slices were pre-incubated with the respective buffer at RT for 30 min in a Coplin jar. Slices were taken out of the jar and the buffer residues were removed.
(§5) Non-specific binding was determined by co-incubation with excess Nisoxetine (10 µM). […] To the naïve incubation solution (baseline), a vehicle containing acetonitrile was added in the same concentration as used for the dissolution of the competitors (i.e. 0.3% acetonitrile in the final incubation solution).
(§6) After 1 h the incubation was stopped and the slices were washed twice for 5 min in a jar with ice-cold incubation buffer. Finally, the tissue slides were washed with ice-cold water to remove all residual salts and dried under a smooth air stream. Subsequently, the dry tissue slices were placed on Phosphor-Imager films in a lead shielded cassette for an exposure time of 12 h. Following the analysis of the films with a Cyclone Phosphor Imager, regions of interest (ROI) were analyzed using OptiQuant® software. The signal obtained (digital light units/mm2=DLU/mm^2) was proportional to the radioactivity on the film. Using a calibration curve for each experiment, DLUs were converted into kBq/mm^2. Furthermore, for calculation of NET-density, kBq were converted into fmol by taking into account the specific activity of the radiotracer preparations. All data was exported to Microsoft Excel for statistical analysis and the percentage of total specific binding was calculated.

[4] = biological target: T2, hNET expressing membranes (Homo sapiens, UniProt P23975); assay: Harvesting experiments with [11C]Me@HAPTHI on hNET expressing membranes; format: binding; settings: cold competitor 1-1000 nM, n ≥ 3 triplicates
T2 construct: purchased Perkin Elmer RBHNETM400AU
T2 sequence (P23975 whole entry): as above

NET [5] = biological target: T3, NET (Rattus norvegicus, UniProt Q63380); assay: In vitro autoradiography with [11C]Me@HAPTHI, rat heart slices, competition; format: binding; settings: for % BL-competitor: [11C]Me@HAPTHI binding, BL = baseline; for fmol (calculated relative concentration of transporter protein): limit of detection 0.01 fmol
T3 construct: Wild-type male rats were deeply anesthesized by isoflurane and sacrificed by decapitation; The organs of interest (i.e. brain, heart and testis) were removed; from tissue; host or cells: rat heart, 10 µm cryo-slices
T3 sequence (Q63380 1-617): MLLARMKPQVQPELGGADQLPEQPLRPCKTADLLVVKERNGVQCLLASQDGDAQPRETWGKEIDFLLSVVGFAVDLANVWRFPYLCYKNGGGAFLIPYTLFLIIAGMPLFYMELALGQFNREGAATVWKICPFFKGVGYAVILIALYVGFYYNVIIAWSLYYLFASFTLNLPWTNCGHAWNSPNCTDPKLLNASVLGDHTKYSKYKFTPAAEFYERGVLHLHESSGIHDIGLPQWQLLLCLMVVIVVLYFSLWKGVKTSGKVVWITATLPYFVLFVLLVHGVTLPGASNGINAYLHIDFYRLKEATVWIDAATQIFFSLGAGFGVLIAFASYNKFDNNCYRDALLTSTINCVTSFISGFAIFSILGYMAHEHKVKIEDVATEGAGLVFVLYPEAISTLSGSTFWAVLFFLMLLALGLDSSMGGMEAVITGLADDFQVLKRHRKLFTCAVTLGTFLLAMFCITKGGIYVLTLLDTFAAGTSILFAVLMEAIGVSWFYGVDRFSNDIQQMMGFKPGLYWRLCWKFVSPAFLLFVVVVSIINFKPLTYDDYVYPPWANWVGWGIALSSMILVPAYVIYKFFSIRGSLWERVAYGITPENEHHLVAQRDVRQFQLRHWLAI
Procedure: as §1, §2, §3, §4, §5, §6

human DAT membranes = biological target: T4, human DAT membranes (Homo sapiens, UniProt Q01959); assay: DAT-expressing membrane binding (selectivity); settings: n ≥ 5 triplicates, read-out: affinity for DAT
T4 construct: purchased Perkin Elmer RBHDATM400UA
T4 sequence (Q01959 whole entry): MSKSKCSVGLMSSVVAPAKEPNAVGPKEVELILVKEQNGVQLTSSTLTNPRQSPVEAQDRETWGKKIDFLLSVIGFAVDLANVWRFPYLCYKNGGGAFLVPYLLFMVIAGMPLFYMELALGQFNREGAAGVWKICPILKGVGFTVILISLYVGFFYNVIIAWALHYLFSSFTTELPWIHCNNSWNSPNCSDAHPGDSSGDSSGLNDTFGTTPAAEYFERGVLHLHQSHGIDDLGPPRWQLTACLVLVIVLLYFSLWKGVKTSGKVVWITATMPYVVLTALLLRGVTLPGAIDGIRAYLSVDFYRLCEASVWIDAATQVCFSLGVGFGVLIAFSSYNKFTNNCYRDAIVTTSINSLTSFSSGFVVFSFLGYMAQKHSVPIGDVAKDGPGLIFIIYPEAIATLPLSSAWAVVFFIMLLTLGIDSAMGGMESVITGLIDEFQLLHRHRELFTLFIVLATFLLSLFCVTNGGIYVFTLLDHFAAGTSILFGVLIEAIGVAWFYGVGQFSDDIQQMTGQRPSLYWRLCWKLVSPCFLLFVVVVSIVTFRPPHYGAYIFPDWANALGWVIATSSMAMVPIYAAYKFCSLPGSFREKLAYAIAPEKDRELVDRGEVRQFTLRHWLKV
Procedure: (§7) IC50 and Ki values were obtained in analogy to NET experiments. Ratios DAT/NET and SERT/NET were determined.
as §7

human NET membranes = biological target: T5, human NET membranes (Homo sapiens, UniProt P23975); assay: NET-expressing membrane competitive binding ([3H]nisoxetine); settings: n ≥ 9 triplicates; cold reference compounds; read-out: Kd (affinity, human NET membranes)
T5 construct: purchased Perkin Elmer RBHNETM400AU
T5 sequence (P23975 whole entry): as the sequence (P23975 whole entry) above
Procedure: The affinity of new radiolabelled ligand was determined in a NET-expressing membrane binding protocol [26, 27].
Data from the competition plots (as arithmetic means of values derived from three different assays, each in triplicate for each compound) were analyzed and subsequently IC50 and Ki values were calculated using GraphPad Prism® software (San Diego, USA).
The affinity of new radiolabeled ligand was determined in a NET-expressing membrane binding protocol [3-5]. […] After incubation time, binding was quenched with ice cold buffer, and membrane bound radioactivity was recovered by rapid vacuum filtration through GF/C glass fiber filters (Whatman® Inc., Clifton, USA) presoaked in assay buffer containing 0.3% polyethylene imine (PEI). […] After addition of a β-scintillation cocktail (2 mL Ultima Gold^TM, biodegradeable, Perkin Elmer), the tubes were shaken for 20 min and then counted. Data from the competition plots (as arithmetic means of values derived from three different assays, each in triplicate for each compound) were analyzed and subsequently IC50 and Ki values were calculated using GraphPad Prism® software (San Diego, USA).

human SERT membranes = biological target: T6, human SERT membranes (Homo sapiens, UniProt P31645); assay: SERT-expressing membrane binding (selectivity); settings: n ≥ 5 triplicates, read-out: affinity towards SERT
T6 construct: purchased Perkin Elmer RBHSTM400UA
T6 sequence (P31645 whole entry): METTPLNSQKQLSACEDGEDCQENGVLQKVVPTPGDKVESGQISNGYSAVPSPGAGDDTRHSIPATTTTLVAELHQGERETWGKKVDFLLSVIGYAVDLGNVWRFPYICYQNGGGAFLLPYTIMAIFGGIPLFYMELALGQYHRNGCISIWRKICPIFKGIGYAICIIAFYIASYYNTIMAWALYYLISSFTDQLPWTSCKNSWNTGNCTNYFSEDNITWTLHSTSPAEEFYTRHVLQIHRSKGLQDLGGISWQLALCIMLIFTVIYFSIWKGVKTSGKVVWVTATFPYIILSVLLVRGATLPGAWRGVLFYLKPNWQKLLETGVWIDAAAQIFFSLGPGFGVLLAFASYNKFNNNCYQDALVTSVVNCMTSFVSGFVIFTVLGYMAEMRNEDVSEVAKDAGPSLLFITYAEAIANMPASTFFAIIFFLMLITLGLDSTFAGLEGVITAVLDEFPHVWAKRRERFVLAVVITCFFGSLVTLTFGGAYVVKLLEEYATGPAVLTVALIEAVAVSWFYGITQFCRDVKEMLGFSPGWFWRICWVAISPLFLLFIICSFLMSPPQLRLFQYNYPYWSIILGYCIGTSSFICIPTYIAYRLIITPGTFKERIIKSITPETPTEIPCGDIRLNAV
Procedure: as §7, §7

[6] = Plasma free fraction by ultrafiltration; format: in vitro ADME, human; settings: binding to filter matrix of Centrifree vials, phosphate buffer pH 7.4
Procedure: For the determination of free fraction in human pooled plasma, an ultrafiltration protocol according to previously published methods was used. […] For a detailed method, see Additional file 1.
After incubation for 20 min at room temperature, the Centrifree vials were centrifuged for 50 minutes at 1800g. Subsequently, an aliquot of 50 µL of the ultrafiltrate was taken and measured in the γ-counter. The plasma free fraction was subsequently calculated as the ratio of the ultrafiltrate activity to the total plasma activity. […] The final free fraction value was corrected for this unspecific filter binding.

[7] = human cortex, competitor 100 nM
[8] = human hippocampus, competitor 100 nM
[9] = human hippocampus, competitor 1 μM
[10] = human hypothalamus, competitor 100 nM
[11] = human hypothalamus, competitor 1 μM
[12] = human thalamus, competitor 100 nM
[13] = human thalamus, competitor 1 μM

[2H]C([2H])(F)Oc1ccccc1OC(c1ccccc1)C1CNCCO1 (centres unmarked) [FMeNER-D2]
% BL-competitor (NET [1]; competitor 100 nM): 102.6 ± 14.5% | % BL-competitor (NET [1]; competitor 1 μM): 107.6 ± 17.7% | logD ([2]; HPLC method, phosphate buffer pH 7.4): 2.73 | % BL-competitor (NET [3]; human cerebellum, competitor 100 nM): 103.9 ± 12.2% | % BL-competitor (NET [3]; human cerebellum, competitor 1 μM): 108.2 ± 17.3% | % BL-competitor (NET [3]; [7]): 86.3 ± 11.2 % | fmol (calculated relative concentration of transporter protein) (NET [3]; [7]): <0.01 fmol/mm^2 | % BL-competitor (NET [3]; human cortex, competitor 1 μM): 71.9 ± 7.9 % | fmol (calculated relative concentration of transporter protein) (NET [3]; human cortex, competitor 1 μM): 0.86 fmol/mm^2 | % BL-competitor (NET [3]; [8]): 97.1 ± 10.3% | fmol (calculated relative concentration of transporter protein) (NET [3]; [8]): <0.01 fmol/mm^2 | % BL-competitor (NET [3]; [9]): 67.3 ± 8.2% | fmol (calculated relative concentration of transporter protein) (NET [3]; [9]): <0.01 fmol/mm^2 | % BL-competitor (NET [3]; [10]): 97.8 ± 14.6% | fmol (calculated relative concentration of transporter protein) (NET [3]; [10]): 0.11 fmol/mm^2 | % BL-competitor (NET [3]; [11]): 77.4 ± 14.5% | fmol (calculated relative concentration of transporter protein) (NET [3]; [11]): 0.02 fmol/mm^2 | % BL-competitor (NET [3]; [12]): 77.6 ± 9.8% | fmol (calculated relative concentration of transporter protein) (NET [3]; [12]): 0.47 fmol/mm^2 | % BL-competitor (NET [3]; [13]): 68.36 ± 2.11% | fmol (calculated relative concentration of transporter protein) (NET [3]; [13]): 0.71 fmol/mm^2 | displacement of [11C]Me@HAPTHI [4]: concentration-dependent displacement | % BL-competitor (NET [5]; competitor 100 nM): 99.00 ± 0.07% | fmol (calculated relative concentration of transporter protein) (NET [5]; competitor 100 nM): <0.01 fmol/mm^2 | % BL-competitor (NET [5]; competitor 1 μM): 88.8 ± 11.2% | fmol (calculated relative concentration of transporter protein) (NET [5]; competitor 1 μM): <0.01 fmol/mm^2

NC[C@@H](O)CCN1c2ccccc2N(c2ccccc2)S1(=O)=O [HAPTHI, (S)-1-(4-amino-3-hydroxybutyl)-3-phenyl-1,3-dihydrobenzo[c][1,2, 5]thiadiazole 2,2-dioxide]
chromatographic logD [2]: 2.3 ± 0.01 | Kd (human DAT membranes): > 10 µM | Kd (human NET membranes): 0.0242 ± 0.0109 µM | Kd (human SERT membranes): 10.3 µM

CNC[C@@H](O)CCN1c2ccccc2N(c2ccccc2)S1(=O)=O [Me@HAPTHI, (S)-1-(3-hydroxy-4-(methylamino)butyl)-3-phenyl-1,3-dihydrobenzo[c][1,2, 5]thiadiazole 2,2-dioxide]
chromatographic logD [2]: 2.27 ± 0.01

[11CH3]NC[C@@H](O)CCN1c2ccccc2N(c2ccccc2)S1(=O)=O [[^11C]Me@HAPTHI, (S)-1-(3-hydroxy-4-([^11C]methylamino)butyl)-3-phenyl-1,3-dihydrobenzo[c][1,2, 5]thiadiazole 2,2-dioxide]
unspecific filter retention [6]: 51.26 ± 0.78%
